According to patent publication US8445492B2, “Method for inhibiting growth of cancer cells and cell telomere and diseases of cell proliferation by using heteroannelated anthraquinone derivative compounds” (National Defense Medical Center, priority 2008, dated 2013):

Key:
Assay type in all cases: cell-based
MDA-MB-435 = assay: NCI DTP in-vitro dose response, Breast Cancer
MDA-MB-231/ATCC = assay: NCI DTP in-vitro dose response, Breast Cancer
HS 578T = assay: NCI DTP in-vitro dose response, Breast Cancer
MDA-MB-468 = assay: NCI DTP in-vitro dose response, Breast Cancer
T-47D = assay: NCI DTP in-vitro dose response, Breast Cancer
NCI/ADR-RES = assay: NCI DTP in-vitro dose response, Breast Cancer
BT-549 = assay: NCI DTP in-vitro dose response, Breast Cancer
MCF7 = assay: NCI DTP in-vitro dose response, Breast Cancer
SK-MEL-5 = assay: NCI DTP in-vitro dose response, Melanoma
LOX IMVI = assay: NCI DTP in-vitro dose response, Melanoma
MALME-3M = assay: NCI DTP in-vitro dose response, Melanoma
SK-MEL-28 = assay: NCI DTP in-vitro dose response, Melanoma
SK-MEL-2 = assay: NCI DTP in-vitro dose response, Melanoma
UACC-62 = assay: NCI DTP in-vitro dose response, Melanoma
UACC-257 = assay: NCI DTP in-vitro dose response, Melanoma
M14 = assay: NCI DTP in-vitro dose response, Melanoma

Compound: CCc1nc2ccc3c(c2[nH]1)C(=O)c1ccccc1C3=O [TABLE 4-9]
- CC50 (MDA-MB-435): > 100 µM
- TGI (MDA-MB-435): >1.00E−4
- Percent Growth (MDA-MB-435; Log10 Concentration −4.0): 37%
- Percent Growth (MDA-MB-435; Log10 Concentration −5.0): 66%
- Percent Growth (MDA-MB-435; Log10 Concentration −6.0): 92%
- Percent Growth (MDA-MB-435; Log10 Concentration −7.0): 91%
- Percent Growth (MDA-MB-435; Log10 Concentration −8.0): 97%
- GI50 (MDA-MB-435; read-out: GI50): 36.5 µM
- CC50 (MDA-MB-231/ATCC): > 100 µM
- TGI (MDA-MB-231/ATCC): >1.00E−4
- Percent Growth (MDA-MB-231/ATCC; Log10 Concentration −4.0): 36%
- Percent Growth (MDA-MB-231/ATCC; Log10 Concentration −5.0): 54%
- Percent Growth (MDA-MB-231/ATCC; Log10 Concentration −6.0): 90%
- Percent Growth (MDA-MB-231/ATCC; Log10 Concentration −7.0): 95%
- Percent Growth (MDA-MB-231/ATCC; Log10 Concentration −8.0): 98%
- GI50 (MDA-MB-231/ATCC; read-out: GI50): 16.6 µM
- CC50 (HS 578T): > 100 µM
- TGI (HS 578T): 2.67E−5
- Percent Growth (HS 578T; Log10 Concentration −4.0): −32%
- Percent Growth (HS 578T; Log10 Concentration −5.0): 24%
- Percent Growth (HS 578T; Log10 Concentration −6.0): 56%
- Percent Growth (HS 578T; Log10 Concentration −7.0): 108%
- Percent Growth (HS 578T; Log10 Concentration −8.0): 107%
- GI50 (HS 578T; read-out: GI50): 1.56 µM
- CC50 (MDA-MB-468): > 100 µM
- TGI (MDA-MB-468): 6.33E−5
- Percent Growth (MDA-MB-468; Log10 Concentration −4.0): −7%
- Percent Growth (MDA-MB-468; Log10 Concentration −5.0): 29%
- Percent Growth (MDA-MB-468; Log10 Concentration −6.0): 79%
- Percent Growth (MDA-MB-468; Log10 Concentration −7.0): 89%
- Percent Growth (MDA-MB-468; Log10 Concentration −8.0): 83%
- GI50 (MDA-MB-468; read-out: GI50): 3.83 µM
- CC50 (T-47D): > 100 µM
- TGI (T-47D): >1.00E−4
- Percent Growth (T-47D; Log10 Concentration −4.0): 10%
- Percent Growth (T-47D; Log10 Concentration −5.0): 32%
- Percent Growth (T-47D; Log10 Concentration −6.0): 78%
- Percent Growth (T-47D; Log10 Concentration −7.0): 94%
- Percent Growth (T-47D; Log10 Concentration −8.0): 105%
- GI50 (T-47D; read-out: GI50): 4 µM
- CC50 (NCI/ADR-RES): > 100 µM
- TGI (NCI/ADR-RES): >1.00E−4
- Percent Growth (NCI/ADR-RES; Log10 Concentration −4.0): 6%
- Percent Growth (NCI/ADR-RES; Log10 Concentration −5.0): 51%
- Percent Growth (NCI/ADR-RES; Log10 Concentration −6.0): 89%
- Percent Growth (NCI/ADR-RES; Log10 Concentration −7.0): 99%
- Percent Growth (NCI/ADR-RES; Log10 Concentration −8.0): 95%
- GI50 (NCI/ADR-RES; read-out: GI50): 10.5 µM
- CC50 (BT-549): > 100 µM
- TGI (BT-549): >1.00E−4
- Percent Growth (BT-549; Log10 Concentration −4.0): 15%
- Percent Growth (BT-549; Log10 Concentration −5.0): 60%
- Percent Growth (BT-549; Log10 Concentration −6.0): 95%
- Percent Growth (BT-549; Log10 Concentration −7.0): 100%
- Percent Growth (BT-549; Log10 Concentration −8.0): 101%
- GI50 (BT-549; read-out: GI50): 16.7 µM
- CC50 (MCF7): > 100 µM
- TGI (MCF7): 8.14E−5
- Percent Growth (MCF7; Log10 Concentration −4.0): −4%
- Percent Growth (MCF7; Log10 Concentration −5.0): 37%
- Percent Growth (MCF7; Log10 Concentration −6.0): 54%
- Percent Growth (MCF7; Log10 Concentration −7.0): 76%
- Percent Growth (MCF7; Log10 Concentration −8.0): 85%
- GI50 (MCF7; read-out: GI50): 1.68 µM

Compound: O=C1c2ccccc2C(=O)c2c1ccc1nccnc21 [TABLE 5-5]
- CC50 (SK-MEL-5): 44.4 µM
- TGI (SK-MEL-5): 1.71E−5
- Percent Growth (SK-MEL-5; Log10 Concentration −4.0): −92%
- Percent Growth (SK-MEL-5; Log10 Concentration −5.0): 28%
- Percent Growth (SK-MEL-5; Log10 Concentration −6.0): 82%
- Percent Growth (SK-MEL-5; Log10 Concentration −7.0): 90%
- Percent Growth (SK-MEL-5; Log10 Concentration −8.0): 90%
- GI50 (SK-MEL-5; read-out: GI50): 3.93 µM
- CC50 (LOX IMVI): > 100 µM
- TGI (LOX IMVI): 3.89E−5
- Percent Growth (LOX IMVI; Log10 Concentration −4.0): −22%
- Percent Growth (LOX IMVI; Log10 Concentration −5.0): 31%
- Percent Growth (LOX IMVI; Log10 Concentration −6.0): 81%
- Percent Growth (LOX IMVI; Log10 Concentration −7.0): 85%
- Percent Growth (LOX IMVI; Log10 Concentration −8.0): 90%
- GI50 (LOX IMVI; read-out: GI50): 4.2 µM
- CC50 (MALME-3M): 70.8 µM
- TGI (MALME-3M): 2.07E−5
- Percent Growth (MALME-3M; Log10 Concentration −4.0): −64%
- Percent Growth (MALME-3M; Log10 Concentration −5.0): 30%
- Percent Growth (MALME-3M; Log10 Concentration −6.0): 88%
- Percent Growth (MALME-3M; Log10 Concentration −7.0): 91%
- Percent Growth (MALME-3M; Log10 Concentration −8.0): 97%
- GI50 (MALME-3M; read-out: GI50): 4.48 µM
- CC50 (SK-MEL-28): > 100 µM
- TGI (SK-MEL-28): 9.11E−5
- Percent Growth (SK-MEL-28; Log10 Concentration −4.0): −3%
- Percent Growth (SK-MEL-28; Log10 Concentration −5.0): 75%
- Percent Growth (SK-MEL-28; Log10 Concentration −6.0): 104%
- Percent Growth (SK-MEL-28; Log10 Concentration −7.0): 101%
- Percent Growth (SK-MEL-28; Log10 Concentration −8.0): 100%
- GI50 (SK-MEL-28; read-out: GI50): 21 µM
- CC50 (SK-MEL-2): > 100 µM
- TGI (SK-MEL-2): 5.59E−5
- Percent Growth (SK-MEL-2; Log10 Concentration −4.0): −20%
- Percent Growth (SK-MEL-2; Log10 Concentration −5.0): 58%
- Percent Growth (SK-MEL-2; Log10 Concentration −6.0): 102%
- Percent Growth (SK-MEL-2; Log10 Concentration −7.0): 85%
- Percent Growth (SK-MEL-2; Log10 Concentration −8.0): 97%
- GI50 (SK-MEL-2; read-out: GI50): 12.7 µM
- CC50 (UACC-62): > 100 µM
- TGI (UACC-62): 5.61E−5
- Percent Growth (UACC-62; Log10 Concentration −4.0): −20%
- Percent Growth (UACC-62; Log10 Concentration −5.0): 60%
- Percent Growth (UACC-62; Log10 Concentration −6.0): 87%
- Percent Growth (UACC-62; Log10 Concentration −7.0): 84%
- Percent Growth (UACC-62; Log10 Concentration −8.0): 92%
- GI50 (UACC-62; read-out: GI50): 13.3 µM
- CC50 (UACC-257): > 100 µM
- TGI (UACC-257): 6.83E−5
- Percent Growth (UACC-257; Log10 Concentration −4.0): −11%
- Percent Growth (UACC-257; Log10 Concentration −5.0): 58%
- Percent Growth (UACC-257; Log10 Concentration −6.0): 99%
- Percent Growth (UACC-257; Log10 Concentration −7.0): 88%
- Percent Growth (UACC-257; Log10 Concentration −8.0): 95%
- GI50 (UACC-257; read-out: GI50): 13 µM
- CC50 (M14): > 100 µM
- TGI (M14): >1.00E−4
- Percent Growth (M14; Log10 Concentration −5.0): 34%
- Percent Growth (M14; Log10 Concentration −6.0): 89%
- Percent Growth (M14; Log10 Concentration −7.0): 91%
- Percent Growth (M14; Log10 Concentration −8.0): 95%
- GI50 (M14; read-out: GI50): 5.14 µM
